Reference: ChEMBL document CHEMBL2434862, “4-Phenylbutyric acid protects against neuronal cell death by primarily acting as a chemical chaperone rather than histone deacetylase inhibitor” (Bioorg Med Chem Lett, 2013)
Activity calls are given as the source filed them. The calls are words filed in the database; no cut-off is given here.

Columns and labels:
[1] = target: Histone deacetylase (Homo sapiens) (UniProt Q13547+O15379+Q9UBN7+Q92769+Q9UQL6+Q8WUI4+Q9BY41+Q96DB2+P56524+Q9UKV0+Q969S8); settings: SH-SY5Y, at 3 mM
Description: Inhibition of HDAC in human SH-SY5Y cells under ER stress assessed as acetylated H3 levels at 3 mM after 48 hrs by Western blot analysis in presence of tunicamycin

[2] = Chemical chaperone activity assessed as suppression of alpha-lactalbumin-bovine serum albumin aggregation at 3 mM by turbidity assay; format: functional

inhibition [1]	Structure (SMILES)	Activity [2]
Active	COc1ccc(CCCC(=O)O)cc1	–
Active	O=C(O)CCCc1ccccc1	Active
Active	O=C(O)CCCc1ccc([N+](=O)[O-])cc1	–
